In experiment [1] the test system is human sperm. The following applies: high-concentration ionophore treatment and removal; cited from earlier work.
For a further experiment, the system named is mouse sperm. The following applies: cited from earlier work.
Another experiment deals with sperm. The following applies: cited from earlier work.
In experiment [2] the test system is human sperm. Nature of the experiment: Sperm motility analysis (CASA) of human sperm after ionophore and/or temperature treatment. It counts as cell-based. Particulars: 0.5 μM for 2 min before incubation at 40° C. for 30 min; FIG. 2A. The protocol:
Sperm Motility Analysis: Aliquots of 9.7 μl of sperm suspensions were placed on slides under 18 mm×18 mm coverslips, obtaining a preparation depth of 30 μm, and maintained at 37° C. using a temperature-controlled stage. Sperm motility parameters were evaluated using the Sperm Class Analyzer® system (SCA v.6.2.0.1., Microptic SL, Barcelona, Spain), acquiring 60 frames per second. At least 5 microscopic fields and 300 sperm were analyzed. The following parameters were assessed: curvilinear velocity (VCL, μm/s), straight line velocity (VSL, μm/s), average path velocity (VAP, μm/s), linearity ([…]), straightness (STR×100, %), wobble (WOB: VAP/VCL×100, a measure of sperm head side to side movement, %), amplitude of lateral head displacement (ALH, μm) and beat cross frequency (BCF, Hz). Sperm motility was measured and classified as follows: rapid progressive (VCL≥35 μm/s; STR≥80%), medium progressive (VCL≥15 μm/s; STR≥80%), in situ (VCL<15 μm/s; VAP≥5 μm/s) and immotile (VAP<5 μm/s). Percentages of total (rapid progressive+medium progressive+in situ) and progressive (rapid+medium progressive) motility were recorded. Drifting was set in 25 μm/s. Sperm were considered hyperactivated when presenting VCL≥150 μm/s, LIN<50% and ALH≥3.5 μm.
Semen samples from healthy men were processed by density gradient centrifugation as stated in Example 1. […]

Here are results for one compound from patent US20260055364A1, “Methods for Improving Sperm Function and Fertilizing Ability for Assisted Reproduction Techniques” (Consejo Nacional de Investigaciones Cientificas y Técnicas …, priority 2022, published 2026).

For `CNc1ccc2oc(C[C@H]3O[C@@]4(CC[C@H]3C)O[C@H]([C@H](C)C(=O)c3ccc[nH]3)[C@H](C)C[C@H]4C)nc2c1C(=O)O` [A23187], in the experiment with human sperm [1], the “motility after ionophore treatment” value is “does not regain motility”. Besides, in the experiment on mouse sperm (10-20 μM for 10 min, then removal, Tateno et al), the “hyperactivation after removal of the ionophore” value is listed as “acquires HA”. Besides, the sperm motility entry with mouse sperm (10-20 μM for 10 min, Tateno et al) was “immobilizes”; with sperm (5-10 μM, in a few minutes) it was “immobilized sperm”. Moreover, the “fertility of sperm from CatSper1−/−, Slo3−/− and Adcy10−/− knock-out lines” value in the experiment with mouse sperm (10-20 μM for 10 min with posterior removal, Navarrete et al (2016)) is reported as “overcomes infertility”. For the same compound, the “sperm HA” value in the experiment on sperm (0.5 and 1 μM) is “provoked sperm HA without immobilization”. Besides, in the experiment on sperm (5-10 μM), the “intracellular Ca2+ concentrations” value is given as “substantially elevated”. Moreover, the “levels of HA compared to control” value with human sperm [2] is given as “higher levels of HA”.
